The text below walks through data of PMC11719397, “Monophthalates of betulinic acid and related pentacyclic triterpenes inhibit efficiently the SOS-mediated nucleotide exchange and impact PI3K/AKT signaling in oncogenic K-RAS4B proteins” (RSC Advances, 2025).

Data set [1] concerns the target T1, K-RAS4B^G12D (Homo sapiens, UniProt P01116, G12D). Put plainly: biochemical. As to conditions: K-RAS4B GDP/GTP exchange; eight data points, at least three determinations.
Target sequence in this assay (P01116 1-188 isoform P01116-2 G12D): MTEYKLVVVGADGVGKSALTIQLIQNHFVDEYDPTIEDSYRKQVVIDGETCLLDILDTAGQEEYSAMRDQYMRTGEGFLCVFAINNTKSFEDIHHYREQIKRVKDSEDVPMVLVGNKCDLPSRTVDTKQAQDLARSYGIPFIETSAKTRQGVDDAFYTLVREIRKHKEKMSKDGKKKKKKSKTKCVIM
The target in data set [2] is (GTP)K-RAS4B^wt:SOS1 complex (Homo sapiens, UniProt P01116+Q07889). The data set is described as follows: HTRF K-RAS^wt:SOS protein-protein interaction assay.
Chain of (GTP)K-RAS4B^wt:SOS1 complex (P01116 1-188 isoform P01116-2): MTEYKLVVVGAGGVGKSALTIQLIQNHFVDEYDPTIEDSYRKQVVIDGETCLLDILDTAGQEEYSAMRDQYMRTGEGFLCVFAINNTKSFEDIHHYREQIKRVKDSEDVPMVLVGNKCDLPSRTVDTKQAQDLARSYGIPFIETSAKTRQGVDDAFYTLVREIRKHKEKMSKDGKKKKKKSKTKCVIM
Chain of (GTP)K-RAS4B^wt:SOS1 complex (Q07889 564-1049 limits assumed): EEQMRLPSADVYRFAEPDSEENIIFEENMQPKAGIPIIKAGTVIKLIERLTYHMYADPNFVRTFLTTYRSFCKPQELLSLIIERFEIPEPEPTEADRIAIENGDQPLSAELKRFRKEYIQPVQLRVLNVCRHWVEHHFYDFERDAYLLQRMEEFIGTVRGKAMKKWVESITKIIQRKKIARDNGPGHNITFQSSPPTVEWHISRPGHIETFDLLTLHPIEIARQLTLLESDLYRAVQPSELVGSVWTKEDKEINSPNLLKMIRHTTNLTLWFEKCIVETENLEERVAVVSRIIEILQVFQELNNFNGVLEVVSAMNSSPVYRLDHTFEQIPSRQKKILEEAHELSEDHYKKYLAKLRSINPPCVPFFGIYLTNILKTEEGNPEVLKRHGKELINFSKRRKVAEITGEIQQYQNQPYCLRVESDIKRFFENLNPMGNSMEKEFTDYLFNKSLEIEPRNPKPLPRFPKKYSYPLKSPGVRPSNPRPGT
Method: The interaction of (GTP)K-RAS4B^wt and SOS was measured with a HTRF assay using an SOS-specific antibody labeled with terbium cryptate as HTRF (homogeneous time-resolved fluorescence) donor and a K-RAS4B^wt specific antibody labeled with an HTRF acceptor (XL665).[52]
To test the compounds effect on the interaction of K-RAS and SOS1 proteins a commercial assay from Revvity (product code 64[sequence]) was used. The K-RAS WT/SOS1 PPI assay includes tagged human recombinant partners (K-RAS WT and SOS1) and labelled anti-tag reagents for HTRF detection. Without an inhibitor, K-RAS WT loaded with GTP binds to SOS1, and the binding of each detection reagent to its tagged target generates an HTRF signal. In the presence of K-RAS WT/SOS1 inhibitors or GTP competitors, the HTRF signal decreases.
After an incubation step for 10 min at room temperature 3 μL Tag1-KRAS protein was added followed by 7.5 μL detection mix containing anti-Tag2 antibody labeled with Terbium cryptate and anti-Tag1 antibody labeled with XL665. […] IC50 values were determined from the sigmoidal dose response curves with the Scigilian Analyze software (Scigilian, Monteral, Canada).
For data set [3], the target named is K-RAS4B wild-type (Homo sapiens, UniProt P01116). The data set is described as follows: Nucleotide exchange assay (SOS1-mediated GDP/GTP exchange, GDP-Glo), K-RAS4B wild-type. In kind it is biochemical. The note with it: K-RAS4B GDP/GTP exchange; eight data points, at least three determinations; (*) single determination.
Chain of K-RAS4B wild-type (P01116 1-188 isoform P01116-2): as the sequence (P01116 1-188 isoform P01116-2) above
The target of data set [4] is T1, K-RAS4B^G12D. Put plainly: cell-based. As to conditions: live cells; displacement of BI2852 from the K-Ras4B SI/II binding-site; read-out: K-RAS4B^G12D NanoBRET TE KD. On the set-up: a fusion protein of LgBiT and full-length RAS; a fusion protein of SmBiT(q) and full-length RAS in cells; expressed in transfected cells; host or cells: HEK239T (so in the source). An excerpt:
To obtain further information on the mode of action, selected GDP/GTP exchange inhibitors were studied in additional assays (Table 3). A target engagement assay, which is based on bioluminescence resonance energy transfer (BRET), was used to measure target engagement at protein complexes in live cells (Fig. 5a). The BRET effect results from an energy transfer between the target luciferase fusion protein and a cell-permeable fluorescent tracer in intact cells.
Fig. 5 Schematic illustrations of the RAS cellular target engagement and RAS:SOS protein–protein interaction assay. (a) NanoBRET target engagement (TE) assay: when the fusion proteins LgBiT-RAS and SmBiT(q)-RAS interact in live-cells, they form an active luciferase as a BRET donor. The BRET receptor is a fluorescent NanoBRET® tracer that binds specifically to K-RAS. K-RAS binders displace the tracer and reduce the BRET signal in a dose-dependent manner.
The NanoBRET® TE Intracellular RAS Assay uses NanoBiT® Technology, a structural complementation system comprised of a large luciferase subunit (LgBiT) and a small complementary peptide (SmBiT(q)). Specifically, a fusion protein of LgBiT and full-length RAS is co-expressed with a fusion protein of SmBiT(q) and full-length RAS in cells. When the RAS proteins interact and form multimers, the LgBiT and SmBiT(q) subunits come together to form an active luciferase enzyme that serves as the BRET donor. The energy acceptor is a cell-permeable fluorescent NanoBRET® tracer that binds specifically to RAS. […] After mixing the plate for 1 min and incubation at room temperature for 15 min 1 μL of NanoBRET TE RAS Tracer 01 (final concentration 1 μM) was added followed by another mixing step. After 2 h incubation (37 °C, 5% CO2) and 15 min at room temperature 5 μL of NanoBRET™ Nano-Glo® substrate was added followed by a mixing step.
Target sequence in this assay (P01116 1-188 isoform P01116-2 G12D): as the sequence (P01116 1-188 isoform P01116-2 G12D) above
Target sequence in this assay (P01116 1-188 isoform P01116-2 G12D): as above

The nature of data set [5]: Solubility.
In data set [6] the target is K-RAS4B G12V (Homo sapiens, UniProt P01116, G12V). The data set is described as follows: Nucleotide exchange assay (SOS1-mediated GDP/GTP exchange, GDP-Glo), K-RAS4B G12V. In kind it is biochemical. As to conditions: eight data points, at least three determinations, (*) single determination.
Chain of K-RAS4B G12V (P01116 1-188 isoform P01116-2 G12V): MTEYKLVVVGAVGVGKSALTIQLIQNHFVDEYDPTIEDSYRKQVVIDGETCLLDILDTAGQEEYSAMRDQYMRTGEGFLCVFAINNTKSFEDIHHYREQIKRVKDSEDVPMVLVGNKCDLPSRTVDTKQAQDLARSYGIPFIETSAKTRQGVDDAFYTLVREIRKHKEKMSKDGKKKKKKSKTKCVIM

Molecules are shown by their SMILES. ≈ marks a conversion by molar mass, not a printed value.

As for `C=C(C)[C@@H]1CC[C@]2(COC(=O)CCC(=O)O)CC[C@]3(C)[C@H](CC[C@@H]4[C@@]5(C)CC[C@H](OC(=O)c6c(F)ccc(F)c6C(=O)O)C(C)(C)[C@@H]5CC[C@]43C)[C@@H]12` [Compound 33], the IC50 in data set [1] came out at 1.45 ± 0.93 µM; in data set [3], 2.09 ± 0.59 µM; in data set [6] it was 2.13 ± 0.87 µM. Besides, the Kd was determined as 37.4 µM in data set [2] and 26.4 µM in data set [4]. Moreover, the concentration in solution in data set [5] (solubility) came to 416 µM (≈ 302 µg/mL).
As for `C=C(C)[C@@H]1CC[C@]2(COC(=O)CCC(=O)O)CC[C@]3(C)[C@H](CC[C@@H]4[C@@]5(C)CC[C@H](OC(=O)c6cc(F)c(F)cc6C(=O)O)C(C)(C)[C@@H]5CC[C@]43C)[C@@H]12` [Compound 34], the results for the 50% inhibitory concentration (IC50) in data set [1], in data set [3] and in data set [6] were 0.66 ± 0.13 µM, 1.18 ± 0.02 µM and 2.85 ± 0.14 µM, respectively. Besides, the Kd in data set [2] and in data set [4] was more than 100 µM each time. The solubility in data set [5] worked out at 410 µM (≈ 298 µg/mL).
In the case of `C[C@H]1[C@H](C)CC[C@]2(C(=O)O)CC[C@]3(C)C(=CC[C@@H]4[C@@]5(C)CC[C@H](OC(=O)c6c(F)ccc(F)c6C(=O)O)C(C)(C)[C@@H]5CC[C@]43C)[C@H]12` [Compound 36], the 50% inhibitory concentration (IC50) is 2.64 ± 1.75 µM in data set [1], 3.46 ± 1.94 µM in data set [3] and 2.52 ± 0.99 µM in data set [6]. Besides, the Kd in data set [2] and in data set [4] was more than 50 µM each time. The solubility in data set [5] was 424 µM (≈ 272 µg/mL).
On to `C[C@H]1[C@H](C)CC[C@]2(C(=O)O)CC[C@]3(C)C(=CC[C@@H]4[C@@]5(C)CC[C@H](OC(=O)c6cc(F)c(F)cc6C(=O)O)C(C)(C)[C@@H]5CC[C@]43C)[C@H]12` [Compound 37], for which the IC50 in data set [1] amounted to 2.53 ± 0.63 µM; in data set [3], 3.94 ± 1.02 µM; in data set [6], 2.15 ± 0.31 µM. The Kd in data set [2] is more than 50 µM; in data set [4], 16.6 µM. In addition, the solubility in data set [5] turned out to be 220 µM (≈ 141 µg/mL).
Turning to `CC1(C)CCC23CCC4(C)C5(C)CCC6C(C)(C)C(OC(=O)c7cc(F)c(F)cc7C(=O)O)CCC6(C)C5CC(O)C4(OC2=O)C3C1` (stereo not drawn) [Compound 51], the half-maximal inhibitory concentration (IC50) turned out to be 26.5 ± 5.9 µM in data set [1], 7.18 ± 0.68 µM in data set [3] and 8.57 ± 1.09 µM in data set [6]. The solubility in data set [5] worked out at 99 µM (≈ 65 µg/mL).
On to `CC1(C)CCC23CCC4(C)C5(C)CCC6C(C)(C)C(OC(=O)c7c(F)ccc(F)c7C(=O)O)CCC6(C)C5CC(O)C4(OC2=O)C3C1` (stereo not drawn) [Compound 52], for which the IC50 in data set [1] was 27.1 ± 4.2 µM; in data set [3], 10.6 ± 2.9 µM; in data set [6], 8.7 ± 0.59 µM. In data set [5], this compound gave a solubility of 320 µM (≈ 210 µg/mL).
`Cn1cnc(Cn2ccc3ccc(CNCc4[nH]c5ccccc5c4C4NC(=O)c5ccc(O)cc54)cc32)c1` (stereo not drawn) [Compound 54, BI2852, reference compound]: the results for the IC50 in data set [1], in data set [3] and in data set [6] were 13.7 ± 5.1 µM, 13.4 ± 2.1 µM and 10.9 ± 0.6 µM, respectively. In addition, the solubility in data set [5] stood at 114 µM (≈ 58.9 µg/mL).
